Experimental data published in patent publication US8507533B2, “Glucagon receptor modulators” (Pfizer Inc., priority 2011, dated 2013).

Experiments:
[1] = biological target: T1, human glucagon receptor (Homo sapiens (Human), UniProt P47871); test: Human Glucagon SPA Assay (binding of [125I]Glucagon-Cex); conditions: membrane from chem-1 cells stably transfected with the human glucagon receptor, Ki by Cheng-Prusoff equation
Protocol: The Glucagon SPA assay is used to determine the ability of test compounds to block the binding of glucagon-cex to the glucagon receptor. Test compounds are re-suspended and serially diluted in 100% DMSO. 1 μl of test compound at the desired concentrations is spotted into the appropriate wells of 96 well low binding white clear bottom plate (Corning). 1 μl of DMSO is spotted into total binding wells. 1 μl of a known glucagon antagonist at a concentration of 20 μM is added to non specific binding wells. […] All assay ingredients with the exception of test compounds are re-suspended in the following buffer; 50 mM Hepes pH 7.4; 5 mM MgCl2; 1 mM CaCl; 5% glycerol and 0.2% BSA. Following a 6-10 hr incubation at room temperature the amount of hot ligand bound to the cell membranes is determined by reading the plates on a Wallac Trilux radioactive emission detector. Data is analyzed using Pfizer's Data analysis program. IC50 values are then determined from the generated sigmoidal dose response curves. Ki values are calculated using Cheng-Prusoff equation. N is the number of times the compound was assayed.

[2] = biological target: T1, human glucagon receptor; test: Glucagon cAMP Assay (Cisbio cAMP detection); assay type: cell-based; conditions: CHOK1 cells stably transfected with the human glucagon receptor; block of glucagon induced cAMP production; Kb by modified Cheng-Prusoff equation

T1 sequence (P47871 26-477): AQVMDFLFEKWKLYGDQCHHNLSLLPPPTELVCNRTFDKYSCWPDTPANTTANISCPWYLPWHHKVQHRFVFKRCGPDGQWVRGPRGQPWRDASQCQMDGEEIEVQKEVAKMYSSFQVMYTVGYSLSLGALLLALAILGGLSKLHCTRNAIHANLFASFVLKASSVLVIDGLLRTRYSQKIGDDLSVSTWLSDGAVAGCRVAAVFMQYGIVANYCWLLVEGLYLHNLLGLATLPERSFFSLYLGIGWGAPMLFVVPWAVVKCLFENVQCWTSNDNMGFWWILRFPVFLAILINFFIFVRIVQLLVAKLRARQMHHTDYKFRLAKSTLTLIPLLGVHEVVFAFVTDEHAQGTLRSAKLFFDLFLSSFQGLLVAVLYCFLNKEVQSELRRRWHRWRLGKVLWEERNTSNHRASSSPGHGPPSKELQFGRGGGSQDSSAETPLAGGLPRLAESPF

SMILES	Ki [1] [µM]	Kb [2] [nM]
CCCC(Oc1ccc(-n2cc3ccc(F)cc3n2)cc1)c1ccc(C(=O)NCCC(=O)O)cc1 (racemic) [Example 186, (+/−)-3-(4-{1-[4-(6-fluoro-indazol-2-yl)-phenoxy]-butyl}-benzoylamino)-propionic acid]	0.175	192
CCCC(Nc1ccc(-n2cc(C(F)(F)F)cn2)nc1)c1ccc(C(=O)NCCC(=O)O)cc1F (single isomer, unassigned) [Example 109, 3-(3-fluoro-4-(1-(6-(4-(trifluoromethyl)-1H-pyrazol-1-yl)pyridin-3-ylamino)butyl)benzamido)propanoic acid]	0.153	1710
CCCC(Nc1ccc(-n2cc(C(F)(F)F)cn2)nc1)c1ccc(C(=O)NCCC(=O)O)cc1F (single isomer, unassigned) [Example 110, 3-(3-fluoro-4-(1-(6-(4-(trifluoromethyl)-1H-pyrazol-1-yl)pyridin-3-ylamino)butyl)benzamido)propanoic acid]	0.0572	97
CCCC(Nc1ccc(-n2cc(C(F)(F)F)cn2)nc1)c1ccc(C(=O)NCCC(=O)O)cc1C (single isomer, unassigned) [Example 111, 3-(3-methyl-4-(1-(6-(4-(trifluoromethyl)-1H-pyrazol-1-yl)pyridin-3-ylamino)butyl)benzamido)propanoic acid]	0.202	2350
CCCC(Nc1ccc(-n2cc(C(F)(F)F)cn2)nc1)c1ccc(C(=O)NCCC(=O)O)cc1C (single isomer, unassigned) [Example 112]	0.143	126
CCCC(Oc1ccc(-n2cc3ccccc3n2)c(C)c1)c1ccc(C(=O)NCCC(=O)O)cc1 (single isomer, unassigned) [Example 116, 3-(4-(1-(4-(2H-indazol-2-yl)-3-methylphenoxy)butyl)benzamido)propanoic acid]	0.464	450
O=C(O)CCNC(=O)c1ccc(C(Nc2ccc(-n3cnc(Cl)c3)nc2)C2CCCC2)cc1 (single isomer, unassigned) [Example 120, 3-(4-((6-(4-chloro-1H-imidazol-1-yl)pyridin-3-ylamino)(cyclopentyl)methyl)benzamido)propanoic acid]	0.225	65
CCCC(Nc1ccc(-n2cnc(-c3ccccc3)c2)nc1)c1ccc(C(=O)NCCC(=O)O)cc1 (single isomer, unassigned) [Example 129, 3-(4-(1-(6-(4-phenyl-1H-imidazol-1-yl)pyridin-3-ylamino)butyl)benzamido)propanoic acid]	0.0293	13

More lines, now with the values ahead:

Ki [1] [µM]	Kb [2] [nM]	SMILES
0.093	90.8	O=C(O)CCNC(=O)c1ccc(C(Nc2ccc(-n3cnc(C(F)(F)F)c3)nc2)C2CCCC2)cc1 (single isomer, unassigned) [Example 97, 3-(4-(cyclopentyl(6-(4-(trifluoromethyl)-1H-imidazol-1-yl)pyridin-3-ylamino)methyl)benzamido)propanoic acid]
1.1	1060	O=C(O)CCNC(=O)c1ccc(C(Nc2ccc(-n3cnc(C(F)(F)F)c3)nc2)C2CCCC2)cc1 (single isomer, unassigned) [Example 98, 3-(4-(cyclopentyl(6-(4-(trifluoromethyl)-1H-imidazol-1-yl)pyridin-3-ylamino)methyl)benzamido)propanoic acid]
0.0076	17	CC1(C)CC(C(Nc2ccc(-n3cc(C(F)(F)F)cn3)nc2)c2ccc(C(=O)NCCC(=O)O)cc2)C1 (single isomer, unassigned) [Example 114, 3-(4-((3,3-dimethylcyclobutyl)(6-(4-(trifluoromethyl)-1H-pyrazol-1-yl)pyridin-3-ylamino)methyl)benzamido)propanoic acid]
0.0158	231	CC1(C)CC(C(Nc2ccc(-n3cc(C(F)(F)F)cn3)nc2)c2ccc(C(=O)NCCC(=O)O)cc2)C1 (single isomer, unassigned) [Example 115, 3-(4-((3,3-dimethylcyclobutyl)(6-(4-(trifluoromethyl)-1H-pyrazol-1-yl)pyridin-3-ylamino)methyl)benzamido)propanoic acid]
